We go through 50 compounds from patent US20180282323A1, “Mesoionic imidazole derivatives as insecticides” (BAYER CROPSCIENCE AKTIENGESELLSCHAFT, priority 2015, published 2018).

One data set has as its system Myzus persicae. The experiment in a line: Myzus persicae oral test. Type of data set: in vivo. The conditions noted are these: application rate 20 ppm, oral uptake through parafilm, after 5 days. The protocol:
Myzus persicae—Oral Test Solvent: 100 parts by weight of acetone
To produce an appropriate active ingredient formulation, 1 part by weight of active ingredient is dissolved with the stated parts by weight of solvent and made up with water until the desired concentration is attained.
50 μl of the active ingredient formulation are transferred into microtitre plates and made up to a final volume of 200 μl with 150 μl of IPL41 insect medium (33%+15% sugar). Subsequently, the plates are sealed with parafilm, which a mixed population of green peach aphids (Myzus persicae) within a second microtitre plate is able to puncture and imbibe the solution through it.
After 5 days, the efficacy in % is determined. 100% means that all the aphids have been killed; 0% means that no aphids have been killed.

Data set [1] is described as follows: log P by HPLC on reversed-phase column (EEC directive 79/831 Annex V.A8). Type of data set: physicochemical. The note with it: for log p: HPLC on reversed-phase column (footnote a); for log p a): HPLC on reversed-phase column. The protocol: a) The determination of the [M+H]^+ by LC-MS in the acidic range was effected at pH 2.7, with acetonitrile (containing 0.1% formic acid) and water as eluents; linear gradient from 10% acetonitrile to 95% acetonitrile, instrument: Agilent 1100 LC system, Agilent MSD system, HTS PAL.
The log P values reported in the tables and preparation examples above were determined in accordance with EEC directive 79/831 Annex V.A8 by HPLC (High Performance Liquid Chromatography) using a reversed-phase column (C18). Temperature 43° C.

`CCOCC(=O)c1c([O-])n(Cc2ccc(Cl)nc2)c2cc(C(F)(F)F)cc[n+]12` [Example I-1-079]: in the data set with Myzus persicae, the efficacy came to 90%. In addition, in data set [1], the log p was 2.17.

Take `O=C(COc1ccc(Cl)nc1)c1c([O-])n(Cc2cnc(Cl)s2)c2cccc[n+]12` [Example I-1-084]: in the data set with Myzus persicae, the efficacy came out at 100%. The same compound displayed a log p in data set [1] of 2.17.

With `O=C(COc1ccccn1)c1c([O-])n(Cc2cnc(Cl)s2)c2cccc[n+]12` [Example I-1-088], the efficacy in the data set with Myzus persicae came out at 100%. In addition, in data set [1], the log p is 1.32.

As to `Cc1ccc2n(Cc3ccc(Cl)nc3)c([O-])c(C(=O)CCl)[n+]2c1` [Example I-1-091], the efficacy in the data set on Myzus persicae was determined as 100%. In data set [1], this compound showed a log p of 1.87.

As for `Cc1ccc[n+]2c(C(=O)Cn3cncn3)c([O-])n(Cc3cnc(Cl)s3)c12` [Example I-1-096], the efficacy in the data set on Myzus persicae worked out at 100%. The compound further displayed a log p in data set [1] of 1.31.

Take `Cc1cccc2n(Cc3ccc(Cl)nc3)c([O-])c(C(=O)CCl)[n+]12` [Example I-1-098]: the efficacy in the data set with Myzus persicae amounted to 100%. In data set [1], this compound returned a log p of 1.74.

The compound `Cc1cccc2n(Cc3ccc(Cl)nc3)c([O-])c(C(=O)Cn3cccn3)[n+]12` [Example I-1-103] came in with an efficacy with Myzus persicae of 100%. The same compound came in with a log p in data set [1] of 1.47.

In the case of `O=C(CCl)c1c([O-])n(Cc2cnc(Cl)s2)c2ccc(Cl)c[n+]12` [Example I-1-108], the efficacy in the data set on Myzus persicae was determined as 100%. This compound also displayed a log p in data set [1] of 2.2.

On to `COCC(=O)c1c([O-])n(Cc2cncc(Cl)c2)c2cccc[n+]12` [Example I-1-109], for which the efficacy in the data set on Myzus persicae was 100%. In data set [1], this compound had a log p of 1.15.

Turning to `O=C(CCl)c1c([O-])n(Cc2ccc(Cl)nc2)c2c(F)cc(F)c[n+]12` [Example I-1-110], in the data set with Myzus persicae, the efficacy is given as 100%. The compound also came in with a log p in data set [1] of 1.96.

In the data set with Myzus persicae, `CCCOCC(=O)c1c([O-])n(Cc2cnc(Cl)s2)c2ccc(Cl)c[n+]12` [Example I-1-117] gave an efficacy of 100%. Moreover, the log p in data set [1] is listed as 2.41.

In the data set on Myzus persicae, `COCC(=O)c1c([O-])n(Cc2cnc(Cl)s2)c2ccc(Cl)c[n+]12` [Example I-1-118] gave an efficacy of 100%. The same compound came in with a log p in data set [1] of 1.69.

In the data set on Myzus persicae, `CCOCC(=O)c1c([O-])n(Cc2cnc(Cl)s2)c2ccc(Cl)c[n+]12` [Example I-1-119] had an efficacy of 100%. Also, in data set [1], the log p was 1.96.

For the compound `COC(=O)c1c([O-])n(Cc2cnc(Cl)s2)c2cccc(Cl)[n+]12` [Example I-1-121], in the data set on Myzus persicae, the efficacy is given as 100%. This compound also came in with a log p in data set [1] of 1.32.

`COCC(=O)c1c([O-])n(Cc2cnc(OC)s2)c2cc(Cl)cc[n+]12` [Example I-1-124] displayed an efficacy in the data set with Myzus persicae of 100%. Moreover, the log p in data set [1] came out at 1.51.

As to `Cc1ccc2n(Cc3cnc(Cl)s3)c([O-])c(C(=O)CCl)[n+]2c1` [Example I-1-125], in the data set on Myzus persicae, the efficacy came to 90%. The compound also gave a log p in data set [1] of 1.99.

For the compound `Cc1cc[n+]2c(C(=O)CCl)c([O-])n(Cc3cnc(Cl)s3)c2c1` [Example I-1-126], in the data set on Myzus persicae, the efficacy is reported as 90%. In data set [1], this compound gave a log p of 1.96.

Regarding `CC(C)NC(=O)c1c([O-])n(Cc2cnc(Cl)s2)c2cccc[n+]12` [Example I-1-131], the efficacy with Myzus persicae came to 100%. For the same compound, in data set [1], the log p is on record as 1.95.

In turn, `O=C(NC1CC1)c1c([O-])n(Cc2ccc(Cl)nc2)c2cccc[n+]12` [Example I-1-133] returned an efficacy in the data set with Myzus persicae of 90%. Moreover, the log p in data set [1] is 1.85.

In the data set on Myzus persicae, `O=C(NC1CCCC1)c1c([O-])n(Cc2cnc(Cl)s2)c2cccc[n+]12` [Example I-1-138] displayed an efficacy of 100%. Also, in data set [1], the log p came to 2.35.

Compound `CC(NC(=O)c1c([O-])n(Cc2cnc(Cl)s2)c2cccc[n+]12)c1ccc(Cl)cc1` (stereo not shown) [Example I-1-142] had an efficacy in the data set with Myzus persicae of 100%. Moreover, the log p in data set [1] is listed as 3.13.

For `O=C(Nc1ccc(Cl)nc1)c1c([O-])n(Cc2cnc(Cl)s2)c2cccc[n+]12` [Example I-1-146], in the data set on Myzus persicae, the efficacy worked out at 100%. The same compound gave a log p in data set [1] of 2.55.

As to `CC(C)(C)NC(=O)c1c([O-])n(Cc2cnc(Cl)s2)c2cccc[n+]12` [Example I-1-151], the efficacy in the data set on Myzus persicae is listed as 100%. Further, the log p in data set [1] was determined as 2.39.

The compound `COC(=O)c1c([O-])n(Cc2ccc(Cl)nc2)c2ccc(F)c[n+]12` [Example I-1-155] yielded an efficacy in the data set with Myzus persicae of 100%. The log p in data set [1] is 1.43.

In the data set on Myzus persicae, `COC(=O)c1c([O-])n(Cc2ccc(Cl)nc2)c2cccc(C)[n+]12` [Example I-1-157] came in with an efficacy of 100%. In data set [1], this compound came in with a log p of 1.27.

For the compound `COC(=O)c1c([O-])n(Cc2cncc(Cl)c2)c2cccc[n+]12` [Example I-1-158], the efficacy in the data set on Myzus persicae is recorded as 100%. The log p in data set [1] worked out at 1.15.

In the data set with Myzus persicae, `Cc1ccc[n+]2c(C(=O)CCl)c([O-])n(Cc3ccc(Cl)nc3)c12` [Example I-1-159] yielded an efficacy of 100%. Also, the log p in data set [1] is recorded as 1.78.

`COC(=O)c1c([O-])n(Cc2ccc(Cl)nc2)c2c(C)ccc[n+]12` [Example I-1-160] showed an efficacy in the data set on Myzus persicae of 100%. In addition, in data set [1], the log p stood at 1.39.

The compound `COCC(=O)c1c([O-])n(Cc2ccc(Cl)nc2)c2c(Cl)ccc[n+]12` [Example I-1-164] showed an efficacy in the data set with Myzus persicae of 90%. This compound also came in with a log p in data set [1] of 1.59.

As to `COCC(=O)c1c([O-])n(Cc2ccc(Cl)nc2)c2cccc(C)[n+]12` [Example I-1-166], the efficacy with Myzus persicae came out at 100%. Moreover, the log p in data set [1] stood at 1.33.

In the data set with Myzus persicae, `COCC(=O)c1c([O-])n(Cc2ccc(Cl)nc2)c2ccc(C)c[n+]12` [Example I-1-167] yielded an efficacy of 100%. Also, in data set [1], the log p is 1.48.

For the compound `O=C(CCl)c1c([O-])n(Cc2cnc(Cl)c(Cl)c2)c2cccc[n+]12` [Example I-1-168], the efficacy in the data set with Myzus persicae came out at 100%. In data set [1], this compound gave a log p of 2.11.

In the data set with Myzus persicae, `O=C(NC1CC1)c1c([O-])n(Cc2ccc(Cl)nc2)c2ccc(F)c[n+]12` [Example I-1-170] yielded an efficacy of 100%. In data set [1], this compound yielded a log p of 1.79.

In turn, `Cc1cccc2n(Cc3ccc(Cl)nc3)c([O-])c(C(=O)NC3CC3)[n+]12` [Example I-1-171] came in with an efficacy with Myzus persicae of 100%. The compound further returned a log p in data set [1] of 1.05.

Regarding `N#Cc1ccc[n+]2c(C(=O)CCl)c([O-])n(Cc3ccc(Cl)nc3)c12` [Example I-1-172], in the data set with Myzus persicae, the efficacy is 90%. Further, in data set [1], the log p is on record as 1.78.

For `COCC(=O)c1c([O-])n(Cc2cnc(OC)s2)c2ccc(C)c[n+]12` [Example I-1-173], in the data set on Myzus persicae, the efficacy is on record as 100%. This compound also displayed a log p in data set [1] of 1.35.

Compound `COCC(=O)c1c([O-])n(Cc2cnc(Cl)s2)c2ccc(C)c[n+]12` [Example I-1-174] displayed an efficacy in the data set with Myzus persicae of 100%. Also, in data set [1], the log p amounted to 1.52.

For the compound `CCOCC(=O)c1c([O-])n(Cc2cnc(Cl)s2)c2ccc(C)c[n+]12` [Example I-1-175], the efficacy in the data set on Myzus persicae is given as 100%. Moreover, the log p in data set [1] came to 1.78.

In the data set on Myzus persicae, `CCOCC(=O)c1c([O-])n(Cc2cncc(Cl)c2)c2cccc[n+]12` [Example I-1-177] gave an efficacy of 100%. In addition, the log p in data set [1] was 1.37.

`COCC(=O)c1c([O-])n(Cc2ccc(C(F)(F)F)nc2)c2cccc[n+]12` [Example I-1-180]: in the data set on Myzus persicae, the efficacy is given as 100%. This compound also registered a log p in data set [1] of 1.49.

In the data set on Myzus persicae, `Cc1ccc[n+]2c(C(=O)NC3CC3)c([O-])n(Cc3ccc(Cl)nc3)c12` [Example I-1-181] yielded an efficacy of 100%. This compound yielded a log p in data set [1] of 1.75.

With `CCOCC(=O)c1c([O-])n(Cc2ccc(Cl)nc2)c2c(C)ccc[n+]12` [Example I-1-182], in the data set with Myzus persicae, the efficacy amounted to 100%. In data set [1], this compound displayed a log p of 1.6.

In the data set on Myzus persicae, `CCOCC(=O)c1c([O-])n(C(C)c2ccc(Cl)nc2)c2cccc[n+]12` (stereo not shown) [Example I-1-186] had an efficacy of 100%. Also, the log p in data set [1] is listed as 1.58.

In the data set with Myzus persicae, `CCOCC(=O)c1c([O-])n(Cc2ccc(C(F)(F)F)nc2)c2cccc[n+]12` [Example I-1-188] returned an efficacy of 100%. In data set [1], this compound registered a log p of 1.72.

On to `Cc1cccc2n(Cc3cnc(Cl)s3)c([O-])c(C(=O)NC3CC3)[n+]12` [Example I-1-190], for which the efficacy with Myzus persicae was determined as 100%. In data set [1], this compound gave a log p of 1.16.

Compound `Cc1ccc[n+]2c(C(=O)NCC(C)C)c([O-])n(Cc3ccc(Cl)nc3)c12` [Example I-1-191] gave an efficacy in the data set with Myzus persicae of 90%. This compound also returned a log p in data set [1] of 2.33.

In turn, `CCOCC(=O)c1c([O-])n(Cc2cnc(Cl)c(Cl)c2)c2cccc[n+]12` [Example I-1-192] yielded an efficacy in the data set on Myzus persicae of 100%. The log p in data set [1] came to 1.93.

In the data set with Myzus persicae, `O=C(NC1CC1)c1c([O-])n(Cc2cncc(Cl)c2)c2cccc[n+]12` [Example I-1-195] had an efficacy of 90%. Moreover, the log p in data set [1] was determined as 1.52.

Compound `COC(=O)c1c([O-])n(C(C)c2ccc(Cl)nc2)c2cccc[n+]12` (stereo not shown) [Example I-1-198] gave an efficacy with Myzus persicae of 100%. In data set [1], the “log p a)” value is 1.32.

`COC(=O)c1c([O-])n(Cc2cnc(Cl)c(Cl)c2)c2cccc[n+]12` [Example I-1-199] showed an efficacy with Myzus persicae of 100%. Moreover, the “log p a)” value in data set [1] is 1.66.
